From ChEMBL document CHEMBL1201862, “PubChem BioAssay data set” (2004)
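Tested at 5 concentrations; 48 h exposure; 96-well plates; endpoints linearly interpolated, else capped at highest concentration. Here, GI50 denotes the concentration required for 50% inhibition of growth.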 The source made the active and inactive calls. Cut-off read from the data, not from the text of the source: active = GI50 up to about 1.1 µM and inactive = higher.

Assays:
Experiment in all cases: NCI tumour cell line growth inhibition, 48 h
A498 = system: A498
ACHN = system: ACHN
CAKI-1 = system: CAKI-1
IGROV-1 = system: IGROV-1
M14 = system: M14
MOLT-4 = system: MOLT-4
Malme-3M = system: Malme-3M
NCI-H460 = system: NCI-H460
OVCAR-3 = system: OVCAR-3
OVCAR-5 = system: OVCAR-5
RXF 393 = system: RXF 393
SK-MEL-2 = system: SK-MEL-2
SK-MEL-5 = system: SK-MEL-5
SK-OV-3 = system: SK-OV-3
TK-10 = system: TK-10
U-251 = system: U-251
UACC-257 = system: UACC-257
NCI-H226 = system: NCI-H226
SW-620 = system: SW-620
HCC 2998 = system: HCC 2998

Measured: GI50

O=C(CCc1ccc(O)cc1)NCCc1cccc(O)c1
inactive: A498 > 50 µM | ACHN > 50 µM | CAKI-1 > 50 µM | IGROV-1 > 50 µM | M14 > 50 µM | MOLT-4 > 50 µM | Malme-3M > 50 µM | NCI-H460 > 50 µM | OVCAR-3 > 50 µM | OVCAR-5 > 50 µM | RXF 393 > 50 µM | SK-MEL-2 > 50 µM | SK-MEL-5 > 50 µM | SK-OV-3 > 50 µM | TK-10 > 50 µM | U-251 > 50 µM | UACC-257 > 50 µM

CC(C)=CCC/C(C)=C/CC/C(C)=C/C(O)c1ccccc1 (stereo not drawn)
inactive: A498 19.5 µM | ACHN 17.4 µM | CAKI-1 > 10 µM | IGROV-1 19.8 µM | M14 18.3 µM | Malme-3M 19.2 µM | NCI-H226 30.1 µM | NCI-H460 19.5 µM | OVCAR-3 20.1 µM | OVCAR-5 18.3 µM | SK-MEL-2 19.8 µM | SK-MEL-5 16.6 µM | SK-OV-3 21.8 µM | SW-620 20.2 µM | TK-10 29.1 µM | U-251 18.2 µM | UACC-257 18.2 µM

O=C(O)C(SC(=S)c1ccc(C(=S)SC(C(=O)O)c2ccccc2)cc1)c1ccccc1 (stereo not drawn)
inactive: A498 69.8 µM | ACHN > 100 µM | HCC 2998 > 100 µM | IGROV-1 > 100 µM | M14 > 100 µM | MOLT-4 > 100 µM | Malme-3M > 100 µM | NCI-H226 55.5 µM | NCI-H460 > 100 µM | OVCAR-3 56.5 µM | OVCAR-5 > 100 µM | RXF 393 > 100 µM | SK-MEL-2 > 100 µM | SK-MEL-5 > 100 µM | SK-OV-3 > 100 µM | SW-620 > 100 µM | TK-10 > 100 µM | U-251 > 100 µM | UACC-257 > 100 µM

O=C(O)C1CC2C=CCC(C2)C1 (stereo not drawn)
inactive: ACHN > 100 µM | CAKI-1 > 100 µM | IGROV-1 > 100 µM | M14 > 100 µM | MOLT-4 > 100 µM | Malme-3M > 100 µM | NCI-H226 > 100 µM | NCI-H460 > 100 µM | OVCAR-3 > 100 µM | OVCAR-5 > 100 µM | RXF 393 > 100 µM | SK-MEL-2 91.8 µM | SK-MEL-5 > 100 µM | SK-OV-3 > 100 µM | SW-620 > 100 µM | TK-10 > 100 µM | U-251 > 100 µM | UACC-257 > 100 µM

CC1SC2=NC3=C(c4ccccc4C3=O)C(c3ccccc3Cl)N2C1=O (stereo not drawn)
inactive: A498 > 100 µM | ACHN > 100 µM | CAKI-1 > 100 µM | HCC 2998 > 100 µM | IGROV-1 > 100 µM | M14 > 100 µM | MOLT-4 75 µM | Malme-3M > 100 µM | NCI-H226 > 100 µM | NCI-H460 > 100 µM | OVCAR-3 > 100 µM | OVCAR-5 > 100 µM | SK-MEL-2 > 100 µM | SK-MEL-5 > 100 µM | SK-OV-3 > 100 µM | SW-620 > 100 µM | TK-10 > 100 µM | U-251 > 100 µM | UACC-257 > 100 µM

C[Si](C)(N[Si](C)(C)OCCc1ccccc1)OCCc1ccccc1
inactive: A498 > 100 µM | ACHN > 100 µM | CAKI-1 > 100 µM | HCC 2998 > 100 µM | IGROV-1 > 100 µM | M14 > 100 µM | NCI-H226 > 100 µM | NCI-H460 > 100 µM | OVCAR-3 > 100 µM | OVCAR-5 > 100 µM | RXF 393 > 100 µM | SK-MEL-2 > 100 µM | SK-MEL-5 > 100 µM | SK-OV-3 > 100 µM | SW-620 > 100 µM | TK-10 > 100 µM | U-251 > 100 µM | UACC-257 > 100 µM

COc1ccc(Nc2cnc3cc(N)ccc3n2)cc1OC
inactive: ACHN 83.9 µM | HCC 2998 29.2 µM | IGROV-1 > 100 µM | M14 > 100 µM | MOLT-4 36.5 µM | Malme-3M > 100 µM | NCI-H226 53.8 µM | NCI-H460 23.9 µM | OVCAR-3 > 100 µM | OVCAR-5 > 100 µM | RXF 393 > 100 µM | SK-MEL-2 44.3 µM | SK-MEL-5 49.9 µM | SK-OV-3 > 100 µM | SW-620 > 100 µM | TK-10 > 100 µM | U-251 40.7 µM | UACC-257 > 100 µM

C1=CCN(c2ccccc2)CC1
inactive: A498 > 100 µM | ACHN 21.5 µM | HCC 2998 49.9 µM | IGROV-1 29.9 µM | M14 19.9 µM | MOLT-4 5.69 µM | Malme-3M 22.6 µM | NCI-H460 > 100 µM | OVCAR-3 25.4 µM | OVCAR-5 > 100 µM | RXF 393 12.2 µM | SK-MEL-2 39.1 µM | SK-MEL-5 62.7 µM | SK-OV-3 > 100 µM | SW-620 16.3 µM | TK-10 40 µM | U-251 > 100 µM | UACC-257 28.4 µM

COc1ccc(-c2cc(N3CCN(c4ccccc4)CC3)c(C#N)c(=O)o2)cc1
inactive: A498 26.9 µM | ACHN 28.6 µM | CAKI-1 16.7 µM | HCC 2998 65.6 µM | IGROV-1 24.8 µM | M14 > 100 µM | MOLT-4 > 100 µM | Malme-3M 19.4 µM | NCI-H226 7.74 µM | NCI-H460 26.5 µM | OVCAR-5 > 100 µM | RXF 393 13.7 µM | SK-MEL-2 18.8 µM | SK-MEL-5 36.4 µM | SW-620 42 µM | TK-10 22.4 µM | U-251 37.6 µM | UACC-257 50.1 µM

CC(Cc1ccccc1)NC1=NCCO1 (stereo not drawn)
inactive: A498 29.8 µM | ACHN 46 µM | CAKI-1 > 100 µM | HCC 2998 27.6 µM | IGROV-1 36 µM | MOLT-4 47 µM | NCI-H226 > 100 µM | NCI-H460 17.9 µM | OVCAR-5 > 100 µM | RXF 393 52.5 µM | SK-MEL-2 39.6 µM | SK-MEL-5 32.3 µM | SK-OV-3 > 100 µM | SW-620 34.3 µM | U-251 25.1 µM

CCN1CCC(O)(c2ccc(O)cc2)C(C(=O)c2ccc(O)cc2)C1 (stereo not drawn)
inactive: A498 > 10 µM | ACHN 19.8 µM | HCC 2998 > 10 µM | IGROV-1 21.6 µM | M14 19.5 µM | MOLT-4 21.9 µM | Malme-3M 20.5 µM | NCI-H226 29.3 µM | NCI-H460 > 100 µM | OVCAR-3 18.2 µM | OVCAR-5 21.1 µM | RXF 393 16.6 µM | SK-MEL-5 10.8 µM | SK-OV-3 > 100 µM | SW-620 2.95 µM | TK-10 17.3 µM | U-251 > 100 µM | UACC-257 13.7 µM

CSc1nc2c(nc(N)n2C2OCC(O)C(O)C2O)c(=O)[nH]1 (stereo not drawn)
inactive: A498 > 100 µM | ACHN > 100 µM | CAKI-1 > 100 µM | HCC 2998 > 100 µM | IGROV-1 > 100 µM | M14 > 100 µM | MOLT-4 > 100 µM | Malme-3M > 100 µM | NCI-H226 > 100 µM | NCI-H460 > 100 µM | OVCAR-3 > 100 µM | RXF 393 > 100 µM | SK-MEL-5 > 100 µM | SK-OV-3 > 100 µM | SW-620 > 100 µM | TK-10 > 100 µM | U-251 > 100 µM | UACC-257 > 100 µM

N#CC(C#N)=C1CCC2C(=C(C#N)C#N)CCC12 (stereo not drawn)
inactive: A498 > 100 µM | CAKI-1 > 100 µM | HCC 2998 > 100 µM | IGROV-1 > 100 µM | M14 > 100 µM | MOLT-4 > 100 µM | Malme-3M > 100 µM | NCI-H226 > 100 µM | NCI-H460 > 100 µM | OVCAR-3 > 100 µM | OVCAR-5 > 100 µM | RXF 393 > 100 µM | SK-MEL-5 > 100 µM | SK-OV-3 > 100 µM | SW-620 > 100 µM | TK-10 > 100 µM | U-251 > 100 µM | UACC-257 > 100 µM

CC(C)OP(=O)(OC(C)C)/C(F)=N/Nc1ccc([N+](=O)[O-])cc1
inactive: A498 > 100 µM | ACHN > 100 µM | CAKI-1 > 100 µM | HCC 2998 > 100 µM | IGROV-1 > 100 µM | M14 > 100 µM | MOLT-4 > 100 µM | Malme-3M > 100 µM | NCI-H460 > 100 µM | OVCAR-3 > 100 µM | OVCAR-5 > 100 µM | SK-MEL-2 > 100 µM | SK-MEL-5 > 100 µM | SK-OV-3 > 100 µM | SW-620 > 100 µM | TK-10 > 100 µM | U-251 > 100 µM | UACC-257 > 100 µM

CCc1ccc2nc(-c3ccc(O)cc3)sc2c1
inactive: A498 18 µM | ACHN 17.7 µM | CAKI-1 12.4 µM | IGROV-1 14 µM | M14 18.7 µM | MOLT-4 13.6 µM | Malme-3M 17.3 µM | NCI-H226 13.2 µM | NCI-H460 21.1 µM | OVCAR-3 13.6 µM | OVCAR-5 15.3 µM | SK-MEL-2 16.5 µM | SK-MEL-5 17.8 µM | SK-OV-3 16.7 µM | SW-620 20.6 µM | TK-10 17.9 µM | U-251 17.7 µM | UACC-257 12.7 µM

CC[n+]1c(-c2ccccc2)c2cc(N)ccc2c2ccc(N)cc21 [HOMIDIUM BROMIDE]
inactive: ACHN 19 µM | CAKI-1 16.9 µM | HCC 2998 4.79 µM | M14 13.6 µM | MOLT-4 2.36 µM | NCI-H460 5.06 µM | OVCAR-3 3.07 µM | OVCAR-5 15.4 µM | RXF 393 5.68 µM | SK-MEL-2 2.08 µM | SK-MEL-5 1.2 µM | SK-OV-3 3.52 µM | SW-620 3.67 µM | TK-10 8.36 µM | U-251 4.38 µM | UACC-257 2.01 µM
